Laboratory results taken from US20250179073A1, “TRICYCLIC HETEROCYCLE COMPOUNDS AS IAP ANTAGONISTS” (Ascentage Pharma (Suzhou) Co., Ltd., priority 2022, published 2025).
Blank lines part the entries; values can stand above or below the molecule they belong to.

Tested on: MDA-MB-231 cells
Experiment: Cell proliferation assay (CellTiter-Glo), MDA-MB-231
Format: cell-based
Details: Homo sapiens, MDA-MB-231, 72 h, 72 h treatment, Celltiter-Glo luminescence
Outline: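 Compounds tested over ten concentrations ([…]) for 72 h on EVSA-T cells in MEM/10% FBS and MDA-MB-231 cells in RPMI-1640/10% FBS, seeded at 10000/well. Luminescent CellTiter-Glo readout; IC50 fitted after normalisation to controls.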

Compound: C[C@@H]1CN(CC(=O)N2CC(C)(C)c3c2cc(Cc2ccc(F)cc2)c2ncnn32)[C@@H](CN2CCNC(=O)[C@H]2C)CN1 [Compound 191, (R)-4-(((2R,5R)-1-(2-(4-(4-fluorobenzyl)-8,8-dimethyl-7,8-dihydro-6H-pyrrolo[2,3-e][1,2,4]triazolo[1,5-a]pyridin-6-yl)-2-oxoethyl)-5-methylpiperazin-2-yl)methyl)-3-methylpiperazin-2-one]
IC50: 80 nM

Compound: COC(=O)N1CCN(C[C@H]2CN[C@H](C)CN2CC(=O)N2CC(C)(C)c3c2cc(Cc2ccc(F)cc2)c2nn(CC(C)(C)O)c(=O)n32)[C@H](C)C1 [Compound 280, methyl (R)-4-(((2R,5R)-1-(2-(4-(4-fluorobenzyl)-2-(2-hydroxy-2-methylpropyl)-8,8-dimethyl-1-oxo-1,2,7,8-tetrahydro-6H-pyrrolo[2,3-e][1,2,4]triazolo[4,3-a]pyridin-6-yl)-2-oxoethyl)-5-methylpiperazin-2-yl)methyl)-3-methylpiperazine-1-carboxylate]
IC50: 68 nM

Compound: C[C@@H]1CN(CC(=O)N2CC(C)(C)c3c2cc(Cc2ccc(F)cc2)n2ccnc32)[C@@H](CN2CCOC[C@H]2C)CN1 [Example 24, 1-(5-(4-fluorobenzyl)-9,9-dimethyl-8,9-dihydro-7H-imidazo[1,2-a]pyrrolo[3,2-c]pyridin-7-yl)-2-((2R,5R)-5-methyl-2-(((R)-3-methylmorpholino)methyl)piperazin-1-yl)ethan-1-one]
IC50: 240 nM

Now from value to molecule:

IC50: 26 nM
Compound: C[C@@H]1CN(CC(=O)N2CC(C)(C)c3c2cc(Cc2ccc(F)cc2)c2nn(CC(C)(C)O)c(=O)n32)[C@@H](CN2CCC(F)(F)C[C@H]2C)CN1 [Compound 281, 6-(2-((2R,5R)-2-(((R)-4,4-difluoro-2-methylpiperidin-1-yl)methyl)-5-methylpiperazin-1-yl)acetyl)-4-(4-fluorobenzyl)-2-(2-hydroxy-2-methylpropyl)-8,8-dimethyl-2,6,7,8-tetrahydro-1H-pyrrolo[2,3-e][1,2,4]triazolo[4,3-a]pyridin-1-one]

IC50: 350 nM
Compound: C[C@@H]1CN(CC(=O)N2CC(C)(C)c3c2cc(Cc2ccc(F)cc2)c2nn(CC(N)=O)c(=O)n32)[C@@H](CN2CCOC[C@H]2C)CN1 [Compound 217, 2-(4-(4-fluorobenzyl)-8,8-dimethyl-6-(2-((2R,5R)-5-methyl-2-(((R)-3-methylmorpholino)methyl)piperazin-1-yl)acetyl)-1-oxo-7,8-dihydro-1H-pyrrolo[2,3-e][1,2,4]triazolo[4,3-a]pyridin-2(6H)-yl)acetamide]

IC50: 720 nM
Compound: C[C@@H]1CN(CC(=O)N2CC(C)(C)c3c2cc(Cc2ccc(F)cc2F)c2nncn32)[C@@H](CN2CCOC[C@H]2C)CN1 [Compound 155, 1-(4-(2,4-difluorobenzyl)-8,8-dimethyl-7,8-dihydro-6H-pyrrolo[2,3-e][1,2,4]triazolo[4,3-a]pyridin-6-yl)-2-((2R,5R)-5-methyl-2-(((R)-3-methylmorpholino)methyl)piperazin-1-yl)ethan-1-one]

IC50: 480 nM
Compound: C[C@@H]1CN(CC(=O)N2CC(C)(C)c3c2cc(Cc2ccc(F)cc2)c2nn(CC(C)(C)O)c(=O)n32)[C@@H](CN2CC3CCC2CO3)CN1 (stereo partly drawn) [Compound 287, 6-(2-((2R,5R)-2-((2-oxa-5-azabicyclo[2.2.2]octan-5-yl)methyl)-5-methylpiperazin-1-yl)acetyl)-4-(4-fluorobenzyl)-2-(2-hydroxy-2-methylpropyl)-8,8-dimethyl-2,6,7,8-tetrahydro-1H-pyrrolo[2,3-e][1,2,4]triazolo[4,3-a]pyridin-1-one]

IC50: 36 nM
Compound: C[C@@H]1CN(CC(=O)N2CC(C)(C)c3c2cc(Cc2ccc(F)cc2)c2cnc(-c4ccc(F)cc4)n32)[C@@H](CN2CCOC[C@H]2C)CN1 [Example 8, 1-(4-(4-fluorobenzyl)-1-(4-fluorophenyl)-8,8-dimethyl-7,8-di hydro-6H-imidazo[1,5-a]pyrrolo[2,3-e]pyridin-6-yl)-2-((2R,5R)-5-methyl-2-(((R)-3-methylmorpholino)methyl)piperazin-1-yl)ethan-1-one]
